Data on two compounds can be found in ChEMBL document CHEMBL1926601, “Persipeptides A and B, two cyclic peptides from Streptomyces sp. UTMC 1154” (Bioorg Med Chem, 2012).

Molecules are shown by their SMILES. The source made the active and inactive calls. The rule behind the calls is not given here. Square brackets hold non-standard residues; d marks the D form. Peptide text beside a SMILES is read from it. NMeF = CN[C@@H](Cc1ccccc1)C(=O)O; NMeV = CN[C@H](C(=O)O)C(C)C

Experiment [1] deals with Staphylococcus aureus. The experiment is described as follows: Antimicrobial activity against Staphylococcus aureus at 100 ug/ml by agar diffusion test. The format is functional, organism-based. Background: Agar diffusion results depend on both activity and mobility in agar.
Experiment [2] relates to Staphylococcus aureus. The experiment is described as follows: Antimicrobial activity against methicillin-resistant Staphylococcus aureus at 100 ug/ml by agar diffusion test. The format is functional, organism-based.

As for `CC(C)[C@@H]1NC(=O)[C@H](C(C)C)N(C)C(=O)[C@H](C(C)C)NC(=O)[C@H](Cc2ccccc2)N(C)C(=O)[C@H](Cc2ccccc2)NC1=O` (cyclo(F[NMeF]V[NMeV]V)), the result with Staphylococcus aureus [1] and with Staphylococcus aureus [2] was inactive.
Turning to `CC(C)[C@@H]1NC(=O)[C@H](Cc2ccccc2)N(C)C(=O)[C@H](C(C)C)NC(=O)[C@H](C(C)C)N(C)C(=O)[C@H](Cc2ccccc2)NC1=O` (cyclo(F[NMeV]V[NMeF]V)), the result in the experiment on Staphylococcus aureus [1] and with Staphylococcus aureus [2] was inactive.
